Data as given in the supplement of paper PMC11061612.

How the values were obtained:
[1] = compound: CC(C)n1c(=O)n(C)c2cnc3cc(F)c(-c4ccc(OCCCN5CCCCC5)nc4)cc3c21 [AZD1390]; settings: max 0.3 µM
Outline: (§1)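 After 24 hours at 37°C and 5% CO2 in 1536-well plates holding 7.5 μl of DMEM/F12 or RPMI with 10% FBS, cancer cell lines were dosed for 72 hours, with final DMSO typically 0.2%. Viability came from CellTiter-Glo 2.0 luminescence, scaled between the means of blank wells and DMSO wells. A non-linear mixed effects model fitted a two-parameter logistic curve to each dose response to give the single-agent IC50.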

[2] = compound: CC(=O)c1c(C)c2cnc(Nc3ccc(N4CCNCC4)cn3)nc2n(C2CCCC2)c1=O [Palbociclib]; settings: max 10 µM
Outline: as §1

[3] = compound: CC1(C)CCC(CN2CCN(c3ccc(C(=O)NS(=O)(=O)c4ccc(NCC5CCOCC5)c([N+](=O)[O-])c4)c(Oc4cnc5[nH]ccc5c4)c3)CC2)=C(c2ccc(Cl)cc2)C1 [Venetoclax]; settings: max 1 µM
Outline: as §1

[4] = compound: COc1cccc(OCCCN)c1-c1cc(Nc2cnc(C#N)cn2)n[nH]1 [Prexasertib]; settings: max 1 µM
Outline: as §1

[5] = compound: C[C@@H]1COCCN1C2=NC(=NC(=C2)C3(CC3)[S@](=N)(=O)C)C4=C5C=CNC5=NC=C4 [AZD6738]; settings: max 10 µM
Outline: as §1

[6] = compound: CN(CC[C@H](CSC1=CC=CC=C1)NC2=C(C=C(C=C2)S(=O)(=O)NC(=O)C3=CC=C(C=C3)N4CCC(CC4)[C@H](C5=CC=CC=C5C6=CC=C(C=C6)Cl)O)S(=O)(=O)C(F)(F)F)CCO [AZD4320]; settings: max 1 µM
Outline: as §1

[7] = compound: C[C@@H](Nc1cc(F)cc(F)c1)c1cc(C(=O)N(C)C)cc2c(=O)cc(N3CCOCC3)oc12 [AZD8186]; settings: max 3 µM
Outline: as §1

[8] = compound: CN(C)CCCOc1ccc(-c2ccc3ncc4c(c3c2)n(C2CCOCC2)c(=O)n4C)cn1 [AZD0156]; settings: max 3 µM
Outline: as §1

[9] = compound: Cc1nc(-c2cn3c(n2)-c2ccc(-c4cnn(C(C)(C)C(N)=O)c4)cc2OCC3)n(C(C)C)n1 [Taselisib]; settings: max 10 µM
Outline: as §1

[10] = compound: COc1cc2ncnc(Nc3ccc(F)c(Cl)c3)c2cc1OCCCN1CCOCC1 [Gefitinib]; settings: max 10 µM
Outline: as §1

[11] = compound: Cn1cnc2c(F)c(Nc3ccc(Br)cc3Cl)c(C(=O)NOCCO)cc21 [Selumetinib]; settings: max 10 µM
Outline: as §1

[12] = compound: CS(=O)(=O)CCNCc1ccc(-c2ccc3ncnc(Nc4ccc(OCc5cccc(F)c5)c(Cl)c4)c3c2)o1 [Lapatinib]; settings: max 10 µM
Outline: as §1

[13] = compound: C=CCn1c(=O)c2cnc(Nc3ccc(N4CCN(C)CC4)cc3)nc2n1-c1cccc(C(C)(C)O)n1 [AZD1775]; settings: max 3 µM
Outline: as §1

[14] = compound: Cc1c2c(nn1C)CSCc1cc(n(C)n1)CSc1cc(c3ccccc3c1)OCCCc1c(C(=O)O)n(C)c3c-2c(Cl)ccc13 [AZD5991]; settings: max 1 µM
Outline: as §1

[15] = compound: CC1=C(C(=CC=C1)Cl)NC(=O)C2=CN=C(S2)NC3=CC(=NC(=N3)C)N4CCN(CC4)CCO [Dasatinib]; settings: max 2 µM
Outline: as §1

[16] = compound: O=C(c1cc(Cc2n[nH]c(=O)c3ccccc23)ccc1F)N1CCN(C(=O)C2CC2)CC1 [Olaparib]
Outline: as §1

[17] = compound: Cc1cc2ncnn2cc1Nc1ncc2c(n1)n(C1CCOCC1)c(=O)n2C [AZD7648]; settings: max 10 µM
Outline: as §1

[18] = compound: COc1cc(Nc2ncc3c(n2)-c2ccc(Cl)cc2C(c2c(F)cccc2OC)=NC3)ccc1C(=O)O [Alisertib]; settings: max 10 µM
Outline: as §1

[19] = compound: CCc1c2c(nc3ccc(O)cc13)-c1cc3c(c(=O)n1C2)COC(=O)[C@]3(O)CC [SN-38]; settings: max 0.3 µM
Outline: as §1

[20] = compound: C[C@@H](Oc1cc(-c2cnn(C3CCNCC3)c2)cnc1N)c1c(Cl)ccc(F)c1Cl [Crizotinib]; settings: max 10 µM
Outline: as §1

[21] = compound: CC(=O)Nc1cccc(-n2c(=O)n(C3CC3)c(=O)c3c(Nc4ccc(I)cc4F)n(C)c(=O)c(C)c32)c1 [Trametinib]; settings: max 1 µM
Outline: as §1

[22] = compound: C[C@@H](c1ccc2nccn2c1)n1nnc2ncc(-c3cnn(C)c3)nc21 [Savolitinib]; settings: max 1 µM
Outline: as §1

[23] = compound: COc1cccc2c1C(=O)c1c(O)c3c(c(O)c1C2=O)C[C@@](O)(C(=O)CO)C[C@@H]3O[C@H]1C[C@H](N)[C@H](O)[C@H](C)O1 [Doxorubicin]; settings: max 1 µM
Outline: as §1

[24] = compound: C1CN(CCC1(C(=O)N[C@@H](CCO)C2=CC=C(C=C2)Cl)N)C3=NC=NC4=C3C=CN4 [Capivasertib]
Outline: as §1

[25] = compound: CC1=CN2[C@@H](C1)C=NC3=CC(=C(C=C3C2=O)OC)OCCCCCOC4=C(C=C5C(=C4)N=C[C@@H]6CC(=CN6C5=O)C)OC [SG3199]; settings: max 0.001 µM
Outline: as §1

[26] = compound: CCN(CCO)CCCOc1ccc2c(Nc3cc(CC(=O)Nc4cccc(F)c4)[nH]n3)ncnc2c1 [AZD2811]; settings: max 1 µM
Outline: as §1

[27] = compound: COc1nnc2ccc(N3CCC(c4ccc(OCCN5CCN(C)C(=O)[C@H]5C)cc4)CC3)nn12 [AZD5153]; settings: max 1 µM
Outline: as §1

| Cell Line | IC50, cell viability 72 h [1] [nM] | IC50, cell viability 72 h [2] [nM] | IC50, cell viability 72 h [3] [nM] | IC50, cell viability 72 h [4] [nM] | IC50, cell viability 72 h [5] [nM] | IC50, cell viability 72 h [6] [nM] | IC50, cell viability 72 h [7] [nM] | IC50, cell viability 72 h [8] [nM] | IC50, cell viability 72 h [9] [nM] | IC50, cell viability 72 h [10] [nM] | IC50, cell viability 72 h [11] [nM] | IC50, cell viability 72 h [12] [nM] | IC50, cell viability 72 h [13] [nM] | IC50, cell viability 72 h [14] [nM] | IC50, cell viability 72 h [15] [nM] | IC50, cell viability 72 h ([16]; max 10 µM) [nM] | IC50, cell viability 72 h [17] [nM] | IC50, cell viability 72 h [18] [nM] | IC50, cell viability 72 h [19] [nM] | IC50, cell viability 72 h [20] [nM] | IC50, cell viability 72 h [21] [nM] | IC50, cell viability 72 h [22] [nM] | IC50, cell viability 72 h [23] [nM] | IC50, cell viability 72 h ([24]; max 10 µM) [nM] | IC50, cell viability 72 h [25] [nM] | IC50, cell viability 72 h [26] [nM] | IC50, cell viability 72 h [27] [nM] | IC50, cell viability 72 h ([16]; max 3 µM) [nM] | IC50, cell viability 72 h ([24]; max 3 µM) [nM] |
| --- | --- | --- | --- | --- | --- | --- | --- | --- | --- | --- | --- | --- | --- | --- | --- | --- | --- | --- | --- | --- | --- | --- | --- | --- | --- | --- | --- | --- | --- |
| 8-MG-BA (Glioblastoma) | > 300 | > 10000 | > 1000 | 21.1 | 2240 | > 1000 | > 3000 | > 3000 | 3730 | > 10000 | > 10000 | 8810 | 430 | 676 | 255 | > 10000 | > 10000 | > 10000 | 15.4 | 8800 | > 1000 | > 1000 | 393 | > 10000 | > 1 | > 1000 | 136 |  |  |
| A3-KAW (B-Cell Non-Hodgkin's Lymphoma) | > 300 | 1300 | > 1000 | 7.37 | 355 | > 1000 | > 3000 | 1350 | > 10000 | > 10000 | > 10000 | > 10000 | 117 | 21.7 | > 2000 | 8450 | > 10000 | 68.6 | 3.18 | 3980 | 997 | > 1000 | 86.3 | > 10000 | > 1 | 887 | 11.1 |  |  |
| A498 (Kidney Carcinoma) | > 300 | > 10000 | > 1000 | 201 | > 10000 | > 1000 | 425 | > 3000 | 9450 | > 10000 | > 10000 | > 10000 | 1690 | > 1000 | > 2000 | > 10000 | > 10000 | > 10000 | > 300 | > 10000 | > 1000 | > 1000 | > 1000 | 4660 | > 1 | > 1000 | > 1000 |  |  |
| A549 (Lung Adenocarcinoma) | > 300 | 8160 | > 1000 | > 1000 | 6070 | > 1000 | > 3000 | > 3000 | 1720 | > 10000 | 1050 | 2750 | 2460 | > 1000 | 170 | > 10000 | > 10000 | 2340 | 70 | 6620 | 29.7 | > 1000 | 309 | 6930 | > 1 | 777 | 95.2 |  |  |
| ARH-77 (Non-Cancerous) | > 300 | > 10000 | > 1000 | 15.5 | 1850 | 100 | 1270 | 1790 | 528 | > 10000 | > 10000 | 8040 | 189 | 229 | 233 | > 10000 | > 10000 | 1170 | 6.68 | > 10000 | > 1000 | > 1000 | 143 | 1760 | > 1 | > 1000 | 61.8 |  |  |
| BT-483 (Breast Carcinoma) |  |  |  |  |  |  |  | > 3000 |  |  |  |  | > 3000 |  |  |  |  |  |  |  |  |  |  |  |  |  |  | > 3000 | > 3000 |
| CAL-29 (Bladder Carcinoma) | > 300 | > 10000 | > 1000 | 41.8 | 6080 | > 1000 | > 3000 | > 3000 | 218 | > 10000 | > 10000 | > 10000 | 762 | > 1000 | > 2000 | > 10000 | > 10000 | > 10000 | 14.3 | > 10000 | > 1000 | > 1000 | > 1000 | > 10000 | > 1 | > 1000 | > 1000 |  |  |
| CAS-1 (Glioblastoma) | > 300 | > 10000 | > 1000 | 158 | > 10000 | > 1000 | > 3000 | > 3000 | > 10000 | > 10000 | > 10000 | > 10000 | 1600 | > 1000 | 931 | > 10000 | > 10000 | 4130 | 202 | > 10000 | 465 | > 1000 | > 1000 | 7050 | > 1 | > 1000 | 345 |  |  |
| COLO-824 (Breast Carcinoma) | > 300 | > 10000 | 214 | 64.6 | 5510 | 33.3 | > 3000 | > 3000 | 2460 | > 10000 | > 10000 | 7960 | 868 | > 1000 | > 2000 | > 10000 | > 10000 | 3010 | > 300 | 4320 | > 1000 | > 1000 | > 1000 | 7340 | > 1 | 55.8 | 233 |  |  |
